Measured values as given in publication PMC9781652, “Dinuclear Iron Complexes of Iminopyridine-Based Ligands as Selective Cytotoxins for Tumor Cells and Inhibitors of Cancer Cell Migration” (Pharmaceutics, 2022).

Key:
[1] = tested on: NCI-H460 human lung carcinoma cells; assay: Cell proliferation assay (MTT), NCI-H460; assay type: cell-based; details: for IC50: 72 h exposure, MTT, mean ± SE; for SI NCI-H460 (selectivity index): ratio IC50 CCD-18Co / IC50 NCI-H460
Method: (§1) Cells were seeded into 96-well plates at densities of 1500 cells per well for OVCAR-8, 1900 for NCI-H460, and 4000 for CCD-18Co. After 24 h of incubation, they were treated for 72 h with different concentrations of the compounds (concentration range: 0.01 to 6 μM for OVCAR-8; 0.05 to 2 μM for NCI-H460; and 0.07 to 70 μM for CCD-18Co cells). When indicated, cells were also incubated with 30 µM of the ROS scavenger Manganese (III) 5,10,15,20-tetrakis (4-benzoic acid) porphyrin (MnTBAP) (Calbiochem, San Diego, CA, USA). Cell viability was measured using the MTT assay as previously described. The IC50 value corresponds to the concentration of the assayed compound that is required to inhibit the cell proliferation by 50%, and was calculated by linear interpolation from the obtained growth curves. All data are reported as the mean ± standard error (SE) calculated from at least three independent experiments with three replicates in each.

[2] = tested on: OVCAR-8 human ovarian carcinoma cells; assay: Cell proliferation assay (MTT), OVCAR-8; assay type: cell-based; details: for IC50: 72 h exposure, MTT, mean ± SE; for SI OVCAR-8 (selectivity index): ratio IC50 CCD-18Co / IC50 OVCAR-8
Method: as §1

[3] = tested on: CCD-18Co human colon fibroblasts; assay: Cell proliferation assay (MTT), non-tumor CCD-18Co; assay type: cell-based; details: non-tumor cells, 72 h exposure, mean ± SE
Method: as §1

[4] = tested on: MDA-MB-231 human breast carcinoma cells; assay: Cytotoxicity on MDA-MB-231; assay type: cell-based
supercoiled pUC18 DNA = assay: DNA interaction analysis by agarose gel electrophoresis; assay type: biochemical; details: highest concentrations, 24 h, 37 °C, with H2O2
Method: The interaction of DNA with the compounds was monitored in an agarose gel electrophoresis as previously described. […] Two other samples were included in the assays: a sample of pUC18 DNA alone as negative control and a sample of pUC18 DNA with 5 µg/mL cisplatin for comparison purposes. […] Gels were stained with ethidium bromide (1 µg/mL in TBE) for 15 min and DNA bands were visualized under UV light.

MDA-MB-231 cells = assay: Transwell cell migration assay; assay type: cell-based, human; details: 0.1 µM, 24, 48 or 72 h
Method: MDA-MB-231 cells were seeded into the upper chamber of a 24-well transwell insert (8 µm pore size; Sarstedt, Nümbrecht, Germany) at a density of 12,000 cells/0.5 mL RPMI 1640 medium with 0.5% FBS and treated with 0.1 µM compound 10 (corresponding to an IC20). The lower chamber was filled with 0.5 mL RPMI 1640 medium with 10% FBS as a chemoattractant. The cells on the upper side of the inserts were removed with a cotton swab after 24, 48, or 72 h of incubation at 37 °C. Cells that migrated to the lower side of the inserts were fixed for 30 min with 4% paraformaldehyde and stained for 20 min at room temperature with 0.2% crystal violet solution. Ten randomly selected fields at 200× magnification were counted using an Olympus CKX41 inverted microscope (Tokyo, Japan).

OVCAR-8 cells [5] = assay: Flow cytometric analysis of ROS generation (carboxy-H2DCFDA), OVCAR-8; assay type: cell-based, human; details: OVCAR-8, 2, 4.5 or 9 µM, 48 or 72 h
Method: (§2) ROS generation after treatment with the compounds was analyzed using a carboxy-20, 70-dichlorodihydrofluorescein diacetate probe (carboxy-H2DCFDA) (Invitrogen, Waltham, MA). ROS species oxidize this molecule to green fluorescent dichlorofluorescein (DCF), allowing their detection inside the cells using a flow cytometer. A total of 24 h prior to treatments cells were seeded at 70,000 cells/well in 6-well plates in phenol red-free RPMI. Then, they were treated for 48 or 72 h at 37 °C with different concentrations of compound 10 (0.7, 1.5, or 3 μM for NCI-H460 cells and 2, 4.5, or 9 μM for OVCAR-8 cells) for 48 or 72 h at 37 °C. After treatments, cells were washed with PBS and incubated for 30 min at 37 °C in the dark with either 1 μM (NCI-H460 cells) or 0.5 μM (OVCAR-8 cells) carboxy-H2DCFDA diluted in PBS. Cells were then collected with phenol red-free trypsin and analyzed using a NovoCyte Flow cytometer. NovoExpress software (ACEA Biosciences, San Diego, CA, USA) was used to stablish the geometric mean fluorescence intensity of 10,000 cells.

OVCAR-8 cells [6] = assay: Apoptosis analysis, Annexin V-Alexa Fluor 488/PI flow cytometry, OVCAR-8; assay type: cell-based, human; details: OVCAR-8, 1.65 µM, 72 h
Method: (§3) Quantitative analysis of apoptotic cell death caused by compound 10 treatment was carried out by flow cytometry using the Alexa Fluor 488 annexin V/PI Vybrant Apoptosis Assay Kit (Molecular Probes, Eugene, OR, USA) as previously described. Briefly, NCI-H460 cells (7 × 10^4 per well) and OVCAR-8 cells (8 × 10^4 per well) were seeded into 6-well plates and then treated with compound 10 (0.64 μM for NCI-H460 and 1.65 μM for OVCAR-8) for 72 h in serum starved medium. After treatment, we collected attached and floating cells, washed them in cold PBS and stained them for 15 min in the dark with Annexin V-Alexa Fluor 488 and propidium iodide (PI) at room temperature. Cells were analyzed using NovoCyte Flow Cytometer (ACEA Biosciences, San Diego, CA, USA) and NovoExpress software (ACEA Biosciences, San Diego, CA, USA). At least 10,000 cells within the gated region were analyzed.

OVCAR-8 cells [7] = assay: Cell cycle phase analysis (PI flow cytometry), OVCAR-8; assay type: cell-based, human; details: OVCAR-8, 0.8 µM, 72 h
Method: (§4) NCI-H460 and OVCAR-8 cells were treated for 72 h with compound 10 (0.3 μM for NCI-H460 and 0.8 μM for OVCAR-8). Then, they were collected and fixed at −20 °C with 70% ethanol for at least 1 h. Fixed cells washed with cold PBS were resuspended in PBS at a cell density of 1–2 × 10^6 cells/mL, treated at 37 °C for 30 min with ribonuclease A (100 μg/mL) and PI (40 μg/mL) (Molecular Probes, Eugene, OR, USA), and analyzed by flow cytometric. At least 10,000 cells within the gated region were analyzed on a NovoCyte Flow Cytometer (ACEA Biosciences, San Diego, CA, USA). Cell cycle distribution was analyzed using NovoExpress software (ACEA Biosciences, San Diego, CA, USA).

NCI-H460 cells [8] = assay: Apoptosis analysis, Annexin V-Alexa Fluor 488/PI flow cytometry, NCI-H460; assay type: cell-based, human; details: NCI-H460, 0.64 µM, 72 h
Method: as §3

NCI-H460 cells [9] = assay: Flow cytometric analysis of ROS generation (carboxy-H2DCFDA), NCI-H460; assay type: cell-based, human; details: NCI-H460, 0.7, 1.5 or 3 µM, 48 or 72 h
Method: as §2

NCI-H460 cells [10] = assay: Cell cycle phase analysis (PI flow cytometry), NCI-H460; assay type: cell-based, human; details: NCI-H460, 0.3 µM, 72 h
Method: as §4

Compound: CC#N.CC#N.CC#N.CC#N.Cc1cc(N=Cc2ccc(Br)cn2)c2c(c1)C1CC(O2)Oc2c(N=Cc3ccc(Br)cn3)cc(C)cc21.Cc1cc(N=Cc2ccc(Br)cn2)c2c(c1)C1CC(O2)Oc2c(N=Cc3ccc(Br)cn3)cc(C)cc21.F[B-](F)(F)F.F[B-](F)(F)F.F[B-](F)(F)F.F[B-](F)(F)F.[Fe+2].[Fe+2] [Compound 9, [Fe23_2(CH3CN)4](BF4)4]
- IC50 [1]: 600 ± 40 nM
- SI NCI-H460 (selectivity index) [1]: 12.0
- IC50 [2]: 1780 ± 160 nM
- SI OVCAR-8 (selectivity index) [2]: 4.1
- IC50 [3]: 7200 ± 3400 nM

Compound: CC#N.CC#N.CC#N.CC#N.Cc1cc(N=Cc2cccc(C)n2)c2c(c1)C1CC(O2)Oc2c(N=Cc3cccc(C)n3)cc(C)cc21.Cc1cc(N=Cc2cccc(C)n2)c2c(c1)C1CC(O2)Oc2c(N=Cc3cccc(C)n3)cc(C)cc21.F[B-](F)(F)F.F[B-](F)(F)F.F[B-](F)(F)F.F[B-](F)(F)F.[Fe+2].[Fe+2] [Compound 10, [Fe2(4)2(CH3CN)4](BF4)4]
- IC50 ([4]; MDA-MB-231 cells): 250 nM
- fold lower IC50 than that described for cisplatin, MDA-MB-231 ([4]; cisplatin value from literature): about 250 fold
- IC20 ([4]; concentration used in migration assay, corresponding to an IC20): 100 nM
- Effect on pUC18 DNA in the presence of H2O2 at the highest concentrations (supercoiled pUC18 DNA): total DNA degradation
- IC50 [1]: 640 ± 50 nM
- SI NCI-H460 (selectivity index) [1]: 33.7
- Migration of MDA-MB-231 cells (MDA-MB-231 cells): significantly reduces the migration
- ROS levels (fold-increase vs control) (OVCAR-8 cells [5]): ROS levels rise with time and concentration
- percentage of cells that enter in apoptosis (early + late) (OVCAR-8 cells [6]): ~66%
- Early apoptotic cells (%) (OVCAR-8 cells [6]; serum starved medium): 36.12 ± 2.32%
- Late apoptotic cells (%) (OVCAR-8 cells [6]; serum starved medium): 30.82 ± 2.60%
- Necrotic cells (%) (OVCAR-8 cells [6]; serum starved medium): 1.27 ± 0.08%
- Viable cells (%) (OVCAR-8 cells [6]; serum starved medium): 31.79 ± 3.27%
- % G0/G1 (OVCAR-8 cells [7]): 41.91%
- % G2/M (OVCAR-8 cells [7]): 28.36%
- % S (OVCAR-8 cells [7]): 23.09%
- % Sub-G1 (OVCAR-8 cells [7]): 6.61%
- Effect on cell cycle phase distribution vs untreated cells (OVCAR-8 cells [7]): shift in the cell population from the G0/G1 phase to the S and G2/M phases
- percentage of cells that enter in apoptosis (early + late) (NCI-H460 cells [8]): about 82%
- Early apoptotic cells (%) (NCI-H460 cells [8]; serum starved medium): 13.72 ± 4.34%
- Late apoptotic cells (%) (NCI-H460 cells [8]; serum starved medium): 68.61 ± 3.04%
- Necrotic cells (%) (NCI-H460 cells [8]; serum starved medium): 1.29 ± 0.27%
- Viable cells (%) (NCI-H460 cells [8]; serum starved medium): 16.37 ± 2.32%
- ROS levels (fold-increase vs control) (NCI-H460 cells [9]): ROS levels rise with time and concentration
- IC50 [2]: 1650 ± 260 nM
- Cellular viability with vs without ROS scavenger MnTBAP ([2]; OVCAR-8, MTT, 30 µM MnTBAP): MnTBAP reduces the antiproliferative effect
- SI OVCAR-8 (selectivity index) [2]: 13.1
- IC50 [3]: 21600 ± 3180 nM
- % G0/G1 (NCI-H460 cells [10]): 57.62%
- % G2/M (NCI-H460 cells [10]): 15.58%
- % S (NCI-H460 cells [10]): 21.71%
- % Sub-G1 (NCI-H460 cells [10]): 5.10%
- Effect on cell cycle phase distribution vs untreated cells (NCI-H460 cells [10]): do not show significant changes in the cell cycle phase distribution

Compound: CC#N.CC#N.CC#N.CC#N.COc1cccc(C=Nc2cc(C)cc3c2OC2CC3c3cc(C)cc(N=Cc4cccc(OC)n4)c3O2)n1.COc1cccc(C=Nc2cc(C)cc3c2OC2CC3c3cc(C)cc(N=Cc4cccc(OC)n4)c3O2)n1.F[B-](F)(F)F.F[B-](F)(F)F.F[B-](F)(F)F.F[B-](F)(F)F.[Fe+2].[Fe+2] [Compound 11, [Fe25_2(CH3CN)4](BF4)4]
- IC50 [1]: 500 ± 100 nM
- SI NCI-H460 (selectivity index) [1]: 24.1
- IC50 [2]: 1400 ± 300 nM
- SI OVCAR-8 (selectivity index) [2]: 8.6
- IC50 [3]: 12000 ± 1440 nM

Compound: CC#N.CC#N.CC#N.CC#N.Cc1cc(N=Cc2ccc3ccccc3n2)c2c(c1)C1CC(O2)Oc2c(N=Cc3ccc4ccccc4n3)cc(C)cc21.Cc1cc(N=Cc2ccc3ccccc3n2)c2c(c1)C1CC(O2)Oc2c(N=Cc3ccc4ccccc4n3)cc(C)cc21.F[B-](F)(F)F.F[B-](F)(F)F.F[B-](F)(F)F.F[B-](F)(F)F.[Fe+2].[Fe+2] [Compound 12, [Fe26_2(CH3CN)4](BF4)4]
- Effect on pUC18 DNA in the presence of H2O2 at the highest concentrations (supercoiled pUC18 DNA): total DNA degradation
- IC50 [1]: 490 ± 80 nM
- SI NCI-H460 (selectivity index) [1]: 8.1
- IC50 [2]: 1240 ± 270 nM
- SI OVCAR-8 (selectivity index) [2]: 3.2
- IC50 [3]: 4050 ± 620 nM
